For data set [1], the target named is urokinase (uPA) (Homo sapiens, UniProt P00749). As to the kind of experiment: urokinase inhibition testing in vitro, chromogenic substrate S-2444, optical density at 405 nm. It counts as biochemical. As to conditions: read-out: Experiment, uPA inhibition activity (IC50). How it is done: After selection of the most promising candidates for new urokinase inhibitors, we tested their inhibition activities in vitro. The experiments were carried out on the system with the urokinase specimen, the tested ligand, and the special substrate—a synthetic Pyro-Glu-Gly-Arg-pNA peptide (S-2444). Urokinase decomposes the substrate with production of the chromogenic product. When the inhibitor binds to the urokinase active site, this production is slowed down. The higher the inhibition activity of the ligand, the slower the working of urokinase and the slower the accumulation of chromogenic product. Thus, the inhibitory activity can be measured by the rate of optical density change at the 405 nm wavelength. […] Error of the method for IC50 measurement in micromole range is about […].
Experimental tests were performed as indicated in paragraph 3.5 of “Methods.” Urokinase proteolytic activity in the presence of inhibitor (and also in absence of inhibitor, labeled “control” in Figure 4) was determined by releasing the paranitroanilide by means of measuring of absorption with a wave length of 405 nm each minute at 30°C. Figure 4 is a diagram of relationship between optical density and time. The angle of curve describes the reaction rate: the lower it is (compared with “control”, which corresponds to urokinase without inhibitors), the better inhibitor works.

For data set [2], the target named is uPA. Details: method as in PMID 8495419. Particulars: cited from earlier work.
In data set [3] the target is human uPA. Details: method as in PMID 15582418, PMID 12113833, PMID 11755349, PMID 15149680, PMID 17447747. Particulars: read-out: K i against human uPA; cited from earlier work.
Details of data set [4]: method as in PMID 19200050. Particulars: cited from earlier work.

Read-outs that look alike come from different tables or passages of the source.

On to `Nc1ncc(-c2ccc(F)cc2)[nH]1` [AIM-0027], for which the 50% inhibitory concentration (IC50) in data set [1] (ordered compounds, Table S2) was found to be 500 µM.

Take `N=C(N)c1cc2c(I)cccc2s1` [B428]: the Ki in data set [2] is 0.53 µM.

Take `Cc1[nH]c2ccc(Oc3ccccc3)cc2c1CCN` [TRY-0074]: in data set [1] (ordered compounds, Table 7), the concentration for half-maximal inhibition (IC50) worked out at 260 µM.

On to `N=C(N)Sc1ccccn1` [U001R], for which the IC50 in data set [1] (synthesized compounds, Table 8) is over 500 µM.

On to `N=C(N)Sc1ccccc1` [U002R], for which the IC50 in data set [1] (synthesized compounds, Table 8) is over 500 µM.

In the case of `Nc1cc2ccccc2cn1` [U003P], the IC50 in data set [1] (synthesized compounds, Table 8) is over 500 µM.

As to `Nc1nc(-c2ccccc2)c[nH]1` [U005r], in data set [1] (synthesized compounds, Table 8), the IC50 is 500 µM.

For the compound `NC1=NCC(COc2ccccc2)O1` (centres unmarked) [U006R], the IC50 in data set [1] (synthesized compounds, Table 8) is over 500 µM.

In the case of `N=C(N)Sc1ccc(Br)cn1` [U007R], in data set [1] (synthesized compounds, Table 8), the concentration for half-maximal inhibition (IC50) was over 500 µM.

In the case of `Nc1nc(-c2ccc3ccccc3c2)cs1` [U009T], the IC50 in data set [1] (synthesized compounds, Table 8) was over 500 µM.

In the case of `NC1=NCC(COc2c(Cl)cccc2Cl)O1` (centres unmarked) [U012T], the half-inhibitory concentration (IC50) in data set [1] (synthesized compounds, Table 8) is over 500 µM.

With `Cc1cccc(C)c1OCC1CN=C(N)O1` (centres unmarked) [U013T], in data set [1] (synthesized compounds, Table 8), the IC50 was over 500 µM.

As to `Nc1ccc2[nH]c(N)nc2c1` [U014R], the half-inhibitory concentration (IC50) in data set [1] (synthesized compounds, Table 8) turned out to be 200 µM.

Take `Nc1nc2cc([N+](=O)[O-])ccc2[nH]1` [U014aR]: the IC50 in data set [1] (synthesized compounds, Table 8) is over 500 µM.

In the case of `Nc1nc2cc(NS(=O)(=O)c3ccccc3)ccc2[nH]1` [U015R], the IC50 in data set [1] (synthesized compounds, Table 8) is over 500 µM.

On to `CC(=O)Nc1ccc2[nH]c(N)nc2c1` [U017R], for which the IC50 in data set [1] (synthesized compounds, Table 8) was found to be 200 µM.

For `COc1ccc2nc(N)[nH]c2c1` [U019R], in data set [1] (synthesized compounds, Table 8), the IC50 is 500 µM.

Regarding `Nc1nc2cc(F)ccc2[nH]1` [U020R], in data set [1] (synthesized compounds, Table 8), the half-inhibitory concentration (IC50) was 500 µM.

Consider `N=C(N)Nc1n[nH]c2ccccc12` [U021R], for which, in data set [1] (synthesized compounds, Table 8), the IC50 came to 500 µM.

For `N=C(N)Nc1nsc2ccccc12` [U024R, 1,2-benzisothiazol-3-yl-guanidine], in data set [1] (synthesized compounds, Table 8), the concentration for half-maximal inhibition (IC50) is 33 µM.

As to `N=C(N)Nc1nsc2ccc(Br)cc12` [U026R, (5-bromo-1,2-benzisothiazol-3-yl) guanidine], the IC50 in data set [1] (synthesized compounds, Table 8) was in the range of 4 to 20 µM.

With `CCOC(=O)N1CCN(C(=O)C(Cc2cccc(C(=N)N)c2)NS(=O)(=O)c2c(C(C)C)cc(C(C)C)cc2C(C)C)CC1` (centres unmarked) [WX-UK1], the Ki in data set [3] was 0.6 µM. In addition, the oral absorption entry in data set [4] is given as “not absorbed orally”.
